Source: patent publication US8426345B2, “Method of drug design” (Alchemia Limited, priority 2005, dated 2013)

Target: T1, Human SST5 somatostatin receptor (Homo sapiens, UniProt P35346)
T1 construct: expressed in transfected cells; host or cells: HEK-293 EBNA cells (membranes)
Test: Filter plate radio-ligand binding assay for SST5 receptor ([125I]SST-14 displacement)

[1] = compound conc 50 μM, 2P library
[2] = compound conc 250 μM, 2P library
[3] = compound conc 500 μM, 2P library

T1 sequence (P35346 whole entry): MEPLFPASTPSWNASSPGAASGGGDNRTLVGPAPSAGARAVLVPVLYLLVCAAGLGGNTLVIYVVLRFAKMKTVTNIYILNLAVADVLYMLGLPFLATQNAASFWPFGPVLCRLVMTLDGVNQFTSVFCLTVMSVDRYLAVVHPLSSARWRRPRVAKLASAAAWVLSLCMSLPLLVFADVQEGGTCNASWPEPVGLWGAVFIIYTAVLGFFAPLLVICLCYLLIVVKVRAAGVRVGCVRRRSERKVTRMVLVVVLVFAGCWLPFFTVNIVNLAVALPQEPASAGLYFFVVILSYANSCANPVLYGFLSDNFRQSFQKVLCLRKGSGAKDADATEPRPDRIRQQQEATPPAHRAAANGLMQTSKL

SMILES | % SST5 radio-ligand binding displaced at conc 50 [1] | % SST5 radio-ligand binding displaced at conc 250 [2] | % SST5 radio-ligand binding displaced at conc 500 [3] | % SST5 radio-ligand binding displaced at conc 50 (conc 50 μM, 3P library) | % SST5 radio-ligand binding displaced at conc 250 (conc 250 μM, 3P library) | % SST5 radio-ligand binding displaced at conc 500 (conc 500 μM, 3P library)
COC[C@H]1O[C@@H](OCc2ccc(Cl)cc2)[C@H](NC(=O)CCCN)[C@@H](OC)[C@@H]1O [Compound 27] | − (% SST5 radio-ligand binding displaced at cone (μM) −<40%) | − (% SST5 radio-ligand binding displaced at cone (μM) −<40%) | − (% SST5 radio-ligand binding displaced at cone (μM) −<40%) |  |  | 
COC[C@H]1O[C@@H](OCc2ccc3ccccc3c2)[C@H](NC(=O)CCCN)[C@@H](OC)[C@@H]1O [Compound 28] | − (% SST5 radio-ligand binding displaced at cone (μM) −<40%) | − (% SST5 radio-ligand binding displaced at cone (μM) −<40%) | ++ (% SST5 radio-ligand binding displaced at conc (μM) >60%) |  |  | 
COC1C(O)C(COCc2ccc(Cl)cc2)OC(SC)C1NC(=O)CN (stereo not drawn) [Compound 29] | − (% SST5 radio-ligand binding displaced at cone (μM) −<40%) | − (% SST5 radio-ligand binding displaced at cone (μM) −<40%) | − (% SST5 radio-ligand binding displaced at cone (μM) −<40%) |  |  | 
COC1C(O)C(COCc2ccc3ccccc3c2)OC(SC)C1NC(=O)CN (stereo not drawn) [Compound 30] | − (% SST5 radio-ligand binding displaced at cone (μM) −<40%) | − (% SST5 radio-ligand binding displaced at cone (μM) −<40%) | + (% SST5 radio-ligand binding displaced at cone (μM) 60>+>40%) |  |  | 
COCC1OC(SC)C(NC(=O)CN)C(OCc2ccc(Cl)cc2)C1O (stereo not drawn) [Compound 31] | − (% SST5 radio-ligand binding displaced at cone (μM) −<40%) | − (% SST5 radio-ligand binding displaced at cone (μM) −<40%) | + (% SST5 radio-ligand binding displaced at cone (μM) 60>+>40%) |  |  | 
COCC1OC(SC)C(NC(=O)CN)C(OCc2ccc3ccccc3c2)C1O (stereo not drawn) [Compound 32] | − (% SST5 radio-ligand binding displaced at cone (μM) −<40%) | − (% SST5 radio-ligand binding displaced at cone (μM) −<40%) | − (% SST5 radio-ligand binding displaced at cone (μM) −<40%) |  |  | 
COC[C@H]1O[C@H](OCc2ccc(Cl)cc2)[C@H](NC(=O)CN)[C@H](OC)[C@@H]1O [Compound 33] | − (% SST5 radio-ligand binding displaced at cone (μM) −<40%) | − (% SST5 radio-ligand binding displaced at cone (μM) −<40%) | − (% SST5 radio-ligand binding displaced at cone (μM) −<40%) |  |  | 
COC[C@H]1O[C@H](OCc2ccc3ccccc3c2)[C@H](NC(=O)CN)[C@H](OC)[C@@H]1O [Compound 34] | − (% SST5 radio-ligand binding displaced at cone (μM) −<40%) | − (% SST5 radio-ligand binding displaced at cone (μM) −<40%) | − (% SST5 radio-ligand binding displaced at cone (μM) −<40%) |  |  | 
COC[C@H]1O[C@@H](OCc2ccc(Cl)cc2)[C@H](NC(=O)CN)[C@H](OC)[C@@H]1O [Compound 35] | − (% SST5 radio-ligand binding displaced at cone (μM) −<40%) | − (% SST5 radio-ligand binding displaced at cone (μM) −<40%) | − (% SST5 radio-ligand binding displaced at cone (μM) −<40%) |  |  | 
COC[C@H]1O[C@@H](OCc2ccc3ccccc3c2)[C@H](NC(=O)CN)[C@H](OC)[C@@H]1O [Compound 36] | − (% SST5 radio-ligand binding displaced at cone (μM) −<40%) | − (% SST5 radio-ligand binding displaced at cone (μM) −<40%) | + (% SST5 radio-ligand binding displaced at cone (μM) 60>+>40%) |  |  | 
COC[C@H]1O[C@@H](SC)[C@H](NC(=O)CCN)[C@H](OCc2ccc(Cl)cc2)[C@@H]1O [Compound 37] | − (% SST5 radio-ligand binding displaced at cone (μM) −<40%) | − (% SST5 radio-ligand binding displaced at cone (μM) −<40%) | − (% SST5 radio-ligand binding displaced at cone (μM) −<40%) |  |  | 
COC[C@H]1O[C@H](OCc2ccc(Cl)cc2)[C@H](NC(=O)CCN)[C@H](OC)[C@@H]1O [Compound 38] | − (% SST5 radio-ligand binding displaced at cone (μM) −<40%) | + (% SST5 radio-ligand binding displaced at cone (μM) 60>+>40%) | ++ (% SST5 radio-ligand binding displaced at conc (μM) >60%) |  |  | 
COC[C@H]1O[C@@H](OCc2ccc(Cl)cc2)[C@H](NC(=O)CCN)[C@H](OC)[C@@H]1O [Compound 39] | − (% SST5 radio-ligand binding displaced at cone (μM) −<40%) | − (% SST5 radio-ligand binding displaced at cone (μM) −<40%) | ++ (% SST5 radio-ligand binding displaced at conc (μM) >60%) |  |  | 
COC[C@H]1O[C@@H](OCc2ccc3ccccc3c2)[C@H](NC(=O)CCN)[C@H](OC)[C@@H]1O [Compound 40] | − (% SST5 radio-ligand binding displaced at cone (μM) −<40%) | ++ (% SST5 radio-ligand binding displaced at conc (μM) >60%) | ++ (% SST5 radio-ligand binding displaced at conc (μM) >60%) |  |  | 
CO[C@@H]1[C@H](O)[C@@H](COCc2ccc(Cl)cc2)O[C@@H](SC)[C@@H]1NC(=O)CCCN [Compound 41] | − (% SST5 radio-ligand binding displaced at cone (μM) −<40%) | − (% SST5 radio-ligand binding displaced at cone (μM) −<40%) | − (% SST5 radio-ligand binding displaced at cone (μM) −<40%) |  |  | 
CO[C@@H]1[C@H](O)[C@@H](COCc2ccc3ccccc3c2)O[C@@H](SC)[C@@H]1NC(=O)CCCN [Compound 42] | − (% SST5 radio-ligand binding displaced at cone (μM) −<40%) | − (% SST5 radio-ligand binding displaced at cone (μM) −<40%) | + (% SST5 radio-ligand binding displaced at cone (μM) 60>+>40%) |  |  | 
COC[C@H]1O[C@@H](SC)[C@H](NC(=O)CCCN)[C@H](OCc2ccc(Cl)cc2)[C@@H]1O [Compound 43] | − (% SST5 radio-ligand binding displaced at cone (μM) −<40%) | − (% SST5 radio-ligand binding displaced at cone (μM) −<40%) | − (% SST5 radio-ligand binding displaced at cone (μM) −<40%) |  |  | 
COC[C@H]1O[C@@H](OCc2ccc(Cl)cc2)[C@H](NC(=O)CCCN)[C@H](OC)[C@@H]1O [Compound 44] | − (% SST5 radio-ligand binding displaced at cone (μM) −<40%) | − (% SST5 radio-ligand binding displaced at cone (μM) −<40%) | ++ (% SST5 radio-ligand binding displaced at conc (μM) >60%) |  |  | 
COC[C@H]1O[C@@H](OCc2ccc3ccccc3c2)[C@H](NC(=O)CCCN)[C@H](OC)[C@@H]1O [Compound 45] | − (% SST5 radio-ligand binding displaced at cone (μM) −<40%) | + (% SST5 radio-ligand binding displaced at cone (μM) 60>+>40%) | ++ (% SST5 radio-ligand binding displaced at conc (μM) >60%) |  |  | 
COC[C@H]1O[C@@H](SC)[C@H](NC(=O)CCN)[C@H](OCc2ccc3ccccc3c2)[C@@H]1O [Compound 57] | − (% SST5 radio-ligand binding displaced at cone (μM) −<40%) | − (% SST5 radio-ligand binding displaced at cone (μM) −<40%) | − (% SST5 radio-ligand binding displaced at cone (μM) −<40%) |  |  | 
COC[C@H]1O[C@@H](SC)[C@H](NC(=O)CCCN)[C@H](OCc2ccc3ccccc3c2)[C@@H]1O [Compound 58] | − (% SST5 radio-ligand binding displaced at cone (μM) −<40%) | − (% SST5 radio-ligand binding displaced at cone (μM) −<40%) | − (% SST5 radio-ligand binding displaced at cone (μM) −<40%) |  |  | 
COC[C@H]1O[C@H](OCc2ccc3ccccc3c2)[C@H](NC(=O)CCN)[C@H](OC)[C@@H]1O [Compound 59] | + (% SST5 radio-ligand binding displaced at cone (μM) 60>+>40%) | ++ (% SST5 radio-ligand binding displaced at conc (μM) >60%) | ++ (% SST5 radio-ligand binding displaced at conc (μM) >60%) |  |  | 
COC[C@H]1O[C@H](OCc2ccc3ccccc3c2)[C@H](NC(=O)CCN)[C@@H](OC)[C@@H]1O [Compound 60] |  |  |  | − (% SST5 radio-ligand binding displaced at cone (μM) −<40%) | + (% SST5 radio-ligand binding displaced at cone (μM) 60>+>40%) | ++ (% SST5 radio-ligand binding displaced at conc (μM) >60%)
COC[C@H]1O[C@@H](OCc2ccc3ccccc3c2)[C@H](NC(=O)CCN)[C@@H](OC)[C@@H]1O [Compound 61] |  |  |  | − (% SST5 radio-ligand binding displaced at cone (μM) −<40%) | + (% SST5 radio-ligand binding displaced at cone (μM) 60>+>40%) | ++ (% SST5 radio-ligand binding displaced at conc (μM) >60%)
COC[C@H]1O[C@@H](OCc2ccc3ccccc3c2)[C@H](NC(=O)CCN)[C@H](OC)[C@@H]1O [Compound 62] |  |  |  | − (% SST5 radio-ligand binding displaced at cone (μM) −<40%) | ++ (% SST5 radio-ligand binding displaced at conc (μM) >60%) | ++ (% SST5 radio-ligand binding displaced at conc (μM) >60%)
